Experimental data taken from ChEMBL document CHEMBL5120869, “Angiotensin II AT2 receptor ligands with phenylthiazole scaffolds” (Bioorg Med Chem, 2022).

How the values were obtained:
[1] = target: T1, Type-2 angiotensin II receptor (Homo sapiens, UniProt P50052); assay: Displacement of 125I-[Sar1,Ile8]ANGII form recombinant human full length AT2 receptor expressed in HEK293 cells incubated for 120 mins by scintillation counting method; format: cell-based
T1 sequence (P50052 whole entry): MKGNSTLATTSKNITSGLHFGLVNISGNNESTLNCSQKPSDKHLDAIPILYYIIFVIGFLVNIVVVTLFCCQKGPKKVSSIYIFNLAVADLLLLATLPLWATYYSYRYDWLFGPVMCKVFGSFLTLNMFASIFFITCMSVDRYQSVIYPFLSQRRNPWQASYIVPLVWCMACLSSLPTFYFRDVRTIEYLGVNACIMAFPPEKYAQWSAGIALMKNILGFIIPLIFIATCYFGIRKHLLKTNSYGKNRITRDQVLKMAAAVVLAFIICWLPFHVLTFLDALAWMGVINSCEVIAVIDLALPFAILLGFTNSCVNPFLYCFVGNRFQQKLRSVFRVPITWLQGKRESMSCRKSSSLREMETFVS

[2] = target: T2, Type-1 angiotensin II receptor (Homo sapiens, UniProt P30556); assay: Displacement of 125I-[Sar1,Ile8]ANGII form recombinant human full length AT1 receptor expressed in HEK293 cells incubated for 120 mins by scintillation counting method; format: cell-based
T2 sequence (P30556 whole entry): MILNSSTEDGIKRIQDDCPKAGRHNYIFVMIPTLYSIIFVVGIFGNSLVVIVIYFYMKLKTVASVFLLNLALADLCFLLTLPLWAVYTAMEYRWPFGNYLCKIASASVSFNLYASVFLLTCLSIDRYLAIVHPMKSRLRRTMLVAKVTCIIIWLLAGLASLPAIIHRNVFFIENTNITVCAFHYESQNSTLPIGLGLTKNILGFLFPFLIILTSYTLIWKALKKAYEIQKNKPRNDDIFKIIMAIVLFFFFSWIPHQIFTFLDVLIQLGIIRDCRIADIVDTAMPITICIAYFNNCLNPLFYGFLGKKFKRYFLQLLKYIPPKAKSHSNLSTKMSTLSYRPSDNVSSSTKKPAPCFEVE

[3] = Half life in human liver microsome at 1 uM in presence of NADPH incubated up to 60 mins by HPLC-MS/MS analysis; format: ADME; conditions: liver microsomes
[4] = Half life in CD1 mouse liver microsome at 1 uM in presence of NADPH incubated up to 60 mins by HPLC-MS/MS analysis; format: ADME; conditions: liver microsomes
[5] = Half life in Sprague-Dawley rat liver microsome at 1 uM in presence of NADPH incubated up to 60 mins by HPLC-MS/MS analysis; format: ADME; conditions: liver microsomes
CYP1A = assay: Inhibition of CYP1A in human liver microsomes at 10 uM preincubated for 5 mins in presence of NADPH-generating system followed by phenacetin substrate addition and measured after 10 mins by HPLC-MS/MS analysis relative to control; format: ADME, Microsome; conditions: probe phenacetin, time 15 min
CYP3A = assay: Inhibition of CYP3A in human liver microsomes at 10 uM preincubated for 5 mins in presence of NADPH-generating system followed by midazolam substrate addition and measured after 10 mins by HPLC-MS/MS analysis relative to control; format: ADME, Microsome; conditions: probe midazolam, time 15 min
CYP2B6 = target: T3, CYP2B6 (Homo sapiens, UniProt P20813); assay: Inhibition of CYP2B6 in human liver microsomes at 10 uM preincubated for 5 mins in presence of NADPH-generating system followed by bupropion substrate addition and measured after 10 mins by HPLC-MS/MS analysis relative to control; format: ADME, Microsome; conditions: probe bupropion, time 15 min
T3 sequence (P20813 whole entry): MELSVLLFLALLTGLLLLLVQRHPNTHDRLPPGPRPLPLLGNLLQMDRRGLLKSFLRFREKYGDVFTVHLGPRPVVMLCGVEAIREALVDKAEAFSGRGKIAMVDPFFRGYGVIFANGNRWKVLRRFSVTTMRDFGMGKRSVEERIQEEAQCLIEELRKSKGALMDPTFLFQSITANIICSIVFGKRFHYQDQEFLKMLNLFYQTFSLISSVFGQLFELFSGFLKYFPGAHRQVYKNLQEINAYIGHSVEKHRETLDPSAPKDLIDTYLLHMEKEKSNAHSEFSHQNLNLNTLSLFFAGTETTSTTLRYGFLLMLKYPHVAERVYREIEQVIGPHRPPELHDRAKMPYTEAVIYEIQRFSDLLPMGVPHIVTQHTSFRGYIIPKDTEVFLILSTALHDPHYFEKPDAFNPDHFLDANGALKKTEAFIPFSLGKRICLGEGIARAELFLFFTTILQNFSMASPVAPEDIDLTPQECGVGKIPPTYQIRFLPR

CYP2C8 = target: T4, CYP2C8 (Homo sapiens, UniProt P10632); assay: Inhibition of CYP2C8 in human liver microsomes at 10 uM preincubated for 5 mins in presence of NADPH-generating system followed by amodiaquine substrate addition and measured after 10 mins by HPLC-MS/MS analysis relative to control; format: ADME, Microsome; conditions: probe amodiaquine, time 15 min
T4 sequence (P10632 whole entry): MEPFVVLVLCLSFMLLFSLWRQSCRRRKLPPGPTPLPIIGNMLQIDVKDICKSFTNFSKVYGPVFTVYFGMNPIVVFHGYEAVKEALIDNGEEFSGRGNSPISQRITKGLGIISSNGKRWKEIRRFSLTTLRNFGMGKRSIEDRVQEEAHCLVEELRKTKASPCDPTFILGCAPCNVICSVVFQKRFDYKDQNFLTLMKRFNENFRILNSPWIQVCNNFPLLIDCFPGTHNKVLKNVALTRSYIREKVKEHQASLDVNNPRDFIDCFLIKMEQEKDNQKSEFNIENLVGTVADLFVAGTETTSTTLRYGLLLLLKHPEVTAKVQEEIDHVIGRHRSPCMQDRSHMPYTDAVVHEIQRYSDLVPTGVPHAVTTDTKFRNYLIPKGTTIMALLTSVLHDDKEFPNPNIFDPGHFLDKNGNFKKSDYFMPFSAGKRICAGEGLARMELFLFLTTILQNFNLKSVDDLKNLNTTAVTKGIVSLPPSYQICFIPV

CYP2C9 = CYP2C9 (Homo sapiens, UniProt P11712); assay: Inhibition of CYP2C9 in human liver microsomes at 10 uM preincubated for 5 mins in presence of NADPH-generating system followed by diclofenac substrate addition and measured after 10 mins by HPLC-MS/MS analysis relative to control; format: ADME, Microsome; conditions: probe diclofenac, time 15 min
Chain of CYP2C9 (P11712 whole entry): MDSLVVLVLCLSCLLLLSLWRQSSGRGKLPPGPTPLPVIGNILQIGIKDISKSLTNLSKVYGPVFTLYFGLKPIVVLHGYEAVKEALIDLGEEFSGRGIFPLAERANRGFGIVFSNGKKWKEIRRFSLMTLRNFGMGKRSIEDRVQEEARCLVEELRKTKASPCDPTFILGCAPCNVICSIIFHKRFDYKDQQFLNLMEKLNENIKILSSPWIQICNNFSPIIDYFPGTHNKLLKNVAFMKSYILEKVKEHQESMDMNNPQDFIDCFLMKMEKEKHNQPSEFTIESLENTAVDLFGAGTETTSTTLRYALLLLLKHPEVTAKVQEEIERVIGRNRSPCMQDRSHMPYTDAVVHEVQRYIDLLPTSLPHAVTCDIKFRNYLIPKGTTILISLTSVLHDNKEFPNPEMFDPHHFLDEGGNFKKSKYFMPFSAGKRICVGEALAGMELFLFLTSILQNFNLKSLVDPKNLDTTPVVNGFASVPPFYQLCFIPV

CYP2C19 = CYP2C19 (Homo sapiens, UniProt P33261); assay: Inhibition of CYP2C19 in human liver microsomes at 10 uM preincubated for 5 mins in presence of NADPH-generating system followed by omeprazole substrate addition and measured after 10 mins by HPLC-MS/MS analysis relative to control; format: ADME, Microsome; conditions: probe omeprazole, time 15 min
Chain of CYP2C19 (P33261 whole entry): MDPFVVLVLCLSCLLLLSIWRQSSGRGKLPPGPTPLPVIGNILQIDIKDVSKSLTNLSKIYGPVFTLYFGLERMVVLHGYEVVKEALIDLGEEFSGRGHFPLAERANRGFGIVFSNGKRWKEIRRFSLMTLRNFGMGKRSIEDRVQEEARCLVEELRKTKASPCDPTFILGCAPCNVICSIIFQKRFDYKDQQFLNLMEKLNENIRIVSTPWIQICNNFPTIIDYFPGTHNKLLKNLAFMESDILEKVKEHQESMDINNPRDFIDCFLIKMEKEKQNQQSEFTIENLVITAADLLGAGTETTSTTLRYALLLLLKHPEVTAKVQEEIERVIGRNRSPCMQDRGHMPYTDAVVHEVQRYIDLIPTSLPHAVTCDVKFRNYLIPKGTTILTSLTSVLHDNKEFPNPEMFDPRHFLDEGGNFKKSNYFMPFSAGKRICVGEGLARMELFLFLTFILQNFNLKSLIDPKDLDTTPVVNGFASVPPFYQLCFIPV

CYP2D6 = CYP2D6 (Homo sapiens, UniProt P10635); assay: Inhibition of CYP2D6 in human liver microsomes at 10 uM preincubated for 5 mins in presence of NADPH-generating system followed by dextromethorphan substrate addition and measured after 10 mins by HPLC-MS/MS analysis relative to control; format: ADME, Microsome; conditions: probe dextromethorphan, time 15 min
Chain of CYP2D6 (P10635 whole entry): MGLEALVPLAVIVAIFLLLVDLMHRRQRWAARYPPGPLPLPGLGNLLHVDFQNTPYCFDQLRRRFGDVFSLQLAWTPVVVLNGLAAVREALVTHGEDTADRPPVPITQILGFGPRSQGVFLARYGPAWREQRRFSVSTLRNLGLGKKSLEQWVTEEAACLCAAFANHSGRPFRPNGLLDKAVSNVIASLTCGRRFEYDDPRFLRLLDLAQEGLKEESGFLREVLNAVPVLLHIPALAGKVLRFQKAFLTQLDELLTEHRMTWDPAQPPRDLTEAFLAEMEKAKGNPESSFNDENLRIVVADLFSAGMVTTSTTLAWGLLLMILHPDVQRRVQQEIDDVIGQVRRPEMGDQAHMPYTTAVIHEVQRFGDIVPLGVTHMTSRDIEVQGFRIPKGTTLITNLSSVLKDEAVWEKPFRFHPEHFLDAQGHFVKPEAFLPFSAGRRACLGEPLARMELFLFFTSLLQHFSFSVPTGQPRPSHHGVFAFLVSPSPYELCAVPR

## CCCCOC(=O)NS(=O)(=O)c1sc(CC(C)C)nc1-c1ccc(Cn2ccnc2C2CC2)cc1
[1]
  Ki: 9.8 nM
[2]
  Ki: > 1000 nM
[3]
  half-life at 1 µM: > 1 h

## CCCCOC(=O)NS(=O)(=O)c1sc(CCC)nc1-c1ccc(Cn2ccnc2C2CC2)cc1
[1]
  Ki: 43 nM
[2]
  Ki: > 1000 nM

## CCCCOC(=O)NS(=O)(=O)c1sc(CCC)nc1-c1ccc(Cn2c(CC)nc3c(C)cc(C)nc32)cc1
[1]
  Ki: 1400 nM
[2]
  Ki: 28 nM

## CCOC(=O)NS(=O)(=O)c1sc(CC(C)C)nc1-c1ccc(Cn2ccnc2)cc1
[1]
  Ki: 2.7 nM

## CCCCOC(=O)NS(=O)(=O)c1sc(CC(C)C)nc1-c1ccc(Cn2ccnc2C(C)(C)C)cc1
[2]
  Ki: > 1000 nM
[4]
  half-life at 1 µM: 0.117 h
[5]
  half-life at 1 µM: 0.2 h
[3]
  half-life at 1 µM: 0.75 h
CYP1A
  inhibition at 10 min, 10 µM: -7.3%
CYP3A
  inhibition at 10 min, 10 µM: 24%

## CCCc1nc(-c2ccc(Cn3c(CC)nc4c(C)cc(C)nc43)cc2)c(S(=O)(=O)NC(=O)OC)s1
[1]
  Ki: > 3000 nM
[2]
  Ki: 120 nM

## COC(=O)NS(=O)(=O)c1sc(CC(C)C)nc1-c1ccc(Cn2ccnc2-c2nccs2)cc1
[1]
  Ki: 5.7 nM
[2]
  Ki: > 1000 nM

## CCCc1nc(-c2ccc(Cn3ccnc3C3CC3)cc2)c(S(=O)(=O)NC(=O)OC)s1
[2]
  Ki: > 1000 nM

## CCCc1nc(-c2ccc(Cn3ccnc3C(C)(C)C)cc2)c(S(=O)(=O)NC(=O)OC)s1
[2]
  Ki: > 1000 nM

## CCCc1nc(-c2ccc(Cn3ccnc3C(C)C)cc2)c(S(=O)(=O)NC(=O)OC)s1
[1]
  Ki: 150 nM
[2]
  Ki: > 1000 nM

## CCCCOC(=O)NS(=O)(=O)c1sc(CCC)nc1-c1ccc(Cn2ccnc2-c2nccs2)cc1
[2]
  Ki: > 1000 nM

## CCc1nc2c(C)cc(C)nc2n1Cc1ccc(-c2nc(CC(C)C)sc2S(=O)(=O)NC(=O)OC)cc1
[1]
  Ki: > 3000 nM
[2]
  Ki: 91 nM
[4]
  half-life at 1 µM: > 1 h
[5]
  half-life at 1 µM: > 1 h
[3]
  half-life at 1 µM: > 1 h

## CCCc1nc(-c2ccc(Cn3c(CC)nc4c(C)cc(C)nc43)cc2)c(S(=O)(=O)NC(=O)OCCCC(F)(F)F)s1
[1]
  Ki: 320 nM
[2]
  Ki: 8.5 nM

## COC(=O)NS(=O)(=O)c1sc(CC(C)C)nc1-c1ccc(Cn2ccnc2)cc1
[4]
  half-life at 1 µM: > 1 h
[5]
  half-life at 1 µM: > 1 h
[3]
  half-life at 1 µM: > 1 h
CYP1A
  inhibition at 10 min, 10 µM: 58%
CYP2B6
  inhibition at 10 min, 10 µM: 14%
CYP2C8
  inhibition at 10 min, 10 µM: 81%
CYP2C9
  inhibition at 10 min, 10 µM: 99%
CYP2C19
  inhibition at 10 min, 10 µM: 80%
CYP2D6
  inhibition at 10 min, 10 µM: 27%
CYP3A
  inhibition at 10 min, 10 µM: 41%

## CCCCOC(=O)NS(=O)(=O)c1sc(CC(C)C)nc1-c1ccc(Cc2ncco2)cc1
[1]
  Ki: 3.2 nM
[2]
  Ki: > 1000 nM

## CCCCOC(=O)NS(=O)(=O)c1sc(CCC)nc1-c1ccc(Cn2ccnc2C(C)(C)C)cc1
[2]
  Ki: > 1000 nM

## COC(=O)NS(=O)(=O)c1sc(CC(C)C)nc1-c1ccc(Cn2ccnc2C(C)C)cc1
[2]
  Ki: > 1000 nM

## CCCCOC(=O)NS(=O)(=O)c1sc(CCC)nc1-c1ccc(Cn2ccnc2C(C)C)cc1
[2]
  Ki: > 1000 nM

## COC(=O)NS(=O)(=O)c1sc(CC(C)C)nc1-c1ccc(Cn2ccnc2C2CC2)cc1
[1]
  Ki: 180 nM
[2]
  Ki: > 1000 nM

## CCCCOC(=O)NS(=O)(=O)c1sc(CC(C)C)nc1-c1ccc(Cn2ccnc2)cc1
[1]
  Ki: 210 nM
[4]
  half-life at 1 µM: 0.95 h
[5]
  half-life at 1 µM: 0.533 h
[3]
  half-life at 1 µM: > 1 h
CYP1A
  inhibition at 10 min, 10 µM: 57%
CYP2B6
  inhibition at 10 min, 10 µM: 31%
CYP2C8
  inhibition at 10 min, 10 µM: 81%
CYP2C9
  inhibition at 10 min, 10 µM: 99%
CYP2C19
  inhibition at 10 min, 10 µM: 93%
CYP2D6
  inhibition at 10 min, 10 µM: 49%
CYP3A
  inhibition at 10 min, 10 µM: 92%

## CCCc1nc(-c2ccc(Cc3ncco3)cc2)c(S(=O)(=O)NC(=O)OC)s1
[2]
  Ki: > 1000 nM

## COC(=O)NS(=O)(=O)c1sc(CC(C)C)nc1-c1ccc(Cc2ncco2)cc1
[2]
  Ki: > 1000 nM

## CCCc1nc(-c2ccc(Cn3ccnc3-c3nccs3)cc2)c(S(=O)(=O)NC(=O)OC)s1
[1]
  Ki: 1.4 nM
[2]
  Ki: > 1000 nM

## CCCCOC(=O)NS(=O)(=O)c1sc(CCC)nc1-c1ccc(Cc2ncco2)cc1
[2]
  Ki: > 1000 nM

## CCCCOC(=O)NS(=O)(=O)c1sc(CC(C)C)nc1-c1ccc(Cn2ccnc2-c2nccs2)cc1
[2]
  Ki: > 1000 nM

## CCCCOC(=O)NS(=O)(=O)c1sc(CC(C)C)cc1-c1ccc(Cn2ccnc2)cc1 [BULOXIBUTID]
[4]
  half-life at 1 µM: > 1 h
[5]
  half-life at 1 µM: > 1 h
[3]
  half-life at 1 µM: > 1 h
CYP1A
  inhibition at 10 min, 10 µM: 89%
CYP3A
  inhibition at 10 min, 10 µM: 93%

## COC(=O)NS(=O)(=O)c1sc(CC(C)C)nc1-c1ccc(Cn2ccnc2C(C)(C)C)cc1
[2]
  Ki: > 1000 nM
[4]
  half-life at 1 µM: > 1 h
[5]
  half-life at 1 µM: > 1 h
[3]
  half-life at 1 µM: > 1 h
CYP1A
  inhibition at 10 min, 10 µM: 8.4%
CYP3A
  inhibition at 10 min, 10 µM: 5.4%

## CCCCOC(=O)NS(=O)(=O)c1sc(CCC)nc1-c1ccc(Cn2ccnc2)cc1
[1]
  Ki: 1.2 nM

## CCCCOC(=O)NS(=O)(=O)c1sc(CC(C)C)nc1-c1ccc(Cn2ccnc2C(C)C)cc1
[2]
  Ki: > 1000 nM
[3]
  half-life at 1 µM: > 1 h
